Measured values: US11976280B2, “SMAC/Diablo inhibitors useful for treating cancer” (THE NATIONAL INSTITUTE FOR BIOTECHNOLOGY IN THE NEGEV LTD., priority 2017, dated 2024)
d = 2'-deoxy (DNA); r = 2'-OH (RNA)

Tested on: MDA-MB-231 cell xenografts
Assay: MDA-MB-231 breast cancer xenograft in nude mice
Type: in vivo
Conditions: 700 nM
Experimental: FIGS. 5A-5G depict that si-hSMAC-A inhibited cell growth in vitro and tumor growth of breast cancer xenografts: (FIG. A) MDA-MB-231 cells were transfected with si-NT (50 nM) or si-hSMAC-A (100 nM) and analyzed for cell growth at the indicated time using the SRB method (n=3) (Control (●), si-NT (◯), si-hSMAC-A (▴); (FIG. 5B) MDA-MB-231 cells were transfected with si-NT or si-hSMAC-A and at the indicated time cells were harvested and analyzed for SMAC/Diablo levels by immunoblotting. (3-actin was used as a loading control; (FIG. 5C) MDA-MB-231 cells (3×10^6 cells/mouse) were inoculated into nude mice. Tumor volumes were monitored (using a digital caliper) and on day 18, the mice were divided into two groups (n=8 each) with each mouse in the group containing a tumor with a volume between 60 and 100 mm^3 and similar average volumes measured per group. The two mice groups were subjected to the following treatments: Xenografts were injected with si-NT (●, 350 nM) or si-hSMAC-A (▴, 700 nM). (FIG. 5D) Represents photomicrograph of dissected tumors from mouse MDA-MB-231 cell xenografts treated with si-NT or si-hSMAC-A; (FIG. 5E) Bar-graph represents dissected tumors weight from MDA-MB-231 cell xenografts; calculated average tumor volumes are presented as means±SEM, ***P<0.001 (FIG. 5F, FIG. 5G) Dissected tumors were subjected to immunohistochemistry. […]

“si-hSMAC-A: siRNA to human SMAC/Diablo; sense 5′AAGCGGUGUUUCUCAGAAUUGtt3′ (SEQ ID NO:20), antisense 5′AACAAUUCUGAGAAACCCGCtt3′ (SEQ ID NO:21) (sense AAGCGGUGUUUCUCAGAAUUGTT; antisense AACAAUUCUGAGAAACCCGCTT; sense: sugars from the 5' end r21 d2, backbone not given here; antisense: sugars from the 5' end r20 d2, backbone not given here)” was tested, and the “tumor growth of breast cancer xenografts” value was “inhibited”.
